Broadly, the melting point is the temperature, or range, at which the solid turns liquid.

The source of these data is a melting point compilation (Tetko et al.; mined from patent text by program, amines drawn as free bases though some values may be those of a salt).

Structures are written as SMILES. Bounds are passed on as bounds.

Turning to `Cc1cc(C)c(C(CO)c2ccc(C(C)C)cc2)c(O)c1` (stereo not given), the melting point is 101 to 102 °C.

For `COC(=O)c1cc(C(C)(C)C)c(OC(=O)c2cc(C(C)(C)C)c(O)c(C(C)(C)C)c2)c(C(C)(C)C)c1`, the melting point is 206 to 209 °C.

`C=CCOc1cc([N+](=O)[O-])ccc1[N+](=O)[O-]` had a melting point of 66.5 to 68 °C.

As to `CCCCNc1nc2cc(C)nn2c2c1cnc1c2cnn1CC`, the melting point fell in the range of 160 to 162 °C.

The compound `Nc1cc(F)cc(F)c1NC(=S)Nc1c(Cl)cccc1Cl` yielded a melting point of 310 to 314 °C.

Compound `CCOP(=O)(OCC)C(CCc1cc(C)nc2c(Cl)c(-c3ccccc3)nn12)P(=O)(OCC)OCC` yielded a melting point of 66 to 68 °C.

Compound `COc1ccc([C@]2(O)OCC(C)(C)N[C@H]2C)cc1` yielded a melting point of 170 to 172 °C.

As for `CCc1oc(-c2ccc(C(F)(F)F)cc2)cc1C=O`, the melting point was in the range of 95 to 96 °C.

The compound `CCn1ncc2nc(C#N)c(OCCC(C)C)nc21` yielded a melting point of 78 to 80 °C.

Regarding `CC(C)=CCN1CCc2c(sc(N)c2C(=O)c2ccccc2)C1`, the melting point lay within 76 to 78 °C.

`COCCN(C)C(=O)c1cc2c(nc(C)n2C)c2c1CCC1(Cc3ccccc3C1)N2`: the melting point fell in the range of 160 to 161 °C.

Consider `CSc1ccc(-c2nc(O)c(C(=O)Nc3ccc(C)cc3)c(SC)n2)cc1`, for which the melting point lay within 302 to 305 °C.

Compound `COc1ccc2[nH]c3c(c2c1)CCN(C(C)=O)C3C` (stereo not given) registered a melting point of 198 to 200 °C.

Compound `N#Cc1cc(S(=O)c2ccccc2)[nH]c1-c1ccc(Cl)cc1` (stereo not given) gave a melting point of 169 to 170 °C.

The compound `Cc1oc(-c2ccccc2)nc1CCOc1cccc(-c2cccc(OC3(C(=O)O)CCC3)c2)c1` returned a melting point of 127 °C.

`CNCc1ccc(C2=NCCN2C(=O)OC(C)(C)C)cc1`: the melting point was 65 °C.

The compound `O=Cc1nn(-c2ccc(Cl)cc2)nc1-c1ccccc1` showed a melting point of 110 to 111 °C.

`Cc1ccc2sc(=O)[nH]c2c1` had a melting point of 86 to 88 °C.

In turn, `CCCc1cccc2cc(C(=O)O)oc12` returned a melting point of 75 to 80 °C.

Regarding `COc1ccc(-c2nc(Sc3ccccc3NC(C)=O)[nH]c2-c2ccc(OC)cc2)cc1`, the melting point was determined as 183 °C.

The compound `CC(C)(C)OC(=O)Nc1ccc2ccc(C#N)cc2c1` returned a melting point of 126 to 128 °C.

Turning to `CCN(CC)C(=O)c1cn(-c2cccc(Cl)c2)cn1`, the melting point is 105 °C.

With `COC(=O)c1ccc(CCl)nc1C1=NC(C)(C(C)C)C(=O)N1` (stereo not given), the melting point is 127 to 129 °C.

Turning to `O=S(=O)(c1ccccc1)c1c[nH]c2cccc(CCO)c12`, the melting point lay within 55 to 60 °C.

`NS(=O)(=O)Cc1ccc2[nH]cc(CCN3C(=O)c4ccccc4C3=O)c2c1`: the melting point fell in the range of 186 to 188 °C.

As to `Brc1ccc(-c2ccncc2)cc1`, the melting point is 123 to 124 °C.

As to `CC(C)Cc1c(C(=O)O)c(C(F)F)nc(C(F)(F)F)c1C(C#N)=C1CCCO1`, the melting point is 192 to 193 °C.

`CCOC(=O)c1cc(CBr)ccc1S(=O)(=O)NC(=O)Nc1nc(OC)cc(OC)n1`: the melting point is 195 to 197 °C.

Compound `O=[N+]([O-])c1ccc(-n2cccn2)c(F)c1` came in with a melting point of 128 to 129 °C.

As to `COc1ccc(C(=O)CCCC(=O)C(F)(F)F)cc1`, the melting point is 67.5 to 68.9 °C.

In turn, `N=C(N)NCCOc1ccc2c(c1)NC(=O)C(CCC(=O)O)C2` (stereo not given) gave a melting point of 193 to 196 °C.

For the compound `COc1cc2c(c3c1OC(C)(C)C3)C(c1ccn(Cc3ccc(C(=O)Nc4ccncc4)cc3)c(=O)c1)=NC(C)(C)C2`, the melting point was in the range of 144 to 146 °C.

`Cc1cc(CN2C(=O)C3(COc4cc5c(cc43)OCO5)c3ccccc32)c(C)n1C(C)C` (stereo not given): the melting point is 169 to 171 °C.

As for `Cn1c(-c2ccccc2)c(C2CCC(C(=O)O)(C(=O)O)CC2)c2ccccc21`, the melting point is 230 °C.

In turn, `COC(=O)c1cccc(NC(=O)NCC(=O)O)c1` had a melting point of 215 °C.

As for `O=C(NCCCCc1ccccc1)OC1CCN(C(=O)OC2CCN(C(=O)Oc3ccc(Oc4ccccc4)cc3)CC2)CC1`, the melting point fell in the range of 50 to 60 °C.

In the case of `Cc1cc(F)ccc1Oc1ccc(C2=CC=CN3CCS(=O)(=O)N=C23)cc1`, the melting point lay in the range of 240 to 242 °C.

As for `CCCCCCCCCCCCOCC(C=CC(=O)N(C)C)(C=CC(=O)N(C)C)COCCCCCCCCCCCC`, the melting point is 52 to 54 °C.

`CC(=O)N1CCC(Cl)c2nc3ccccc3c(C)c2C1` (stereo not given) gave a melting point below 20 °C.

Consider `COc1cc(OC)cc(C(=O)Nc2ccc3ccc(Cl)nc3n2)c1`, for which the melting point amounted to 235 °C.

As for `CCCCc1ccc(C(=O)Nc2cc(CCCC)c(NC(=O)c3ccc(CCCC)cc3)c3c2C(=O)c2ccccc2C3=O)cc1`, the melting point is 180 to 181 °C.

The compound `COC(=O)c1cscc1NC(=O)COc1ccc(I)cc1` came in with a melting point of 135 to 137 °C.

As for `COc1cccc(NC(=O)NC2N=C(c3ccccc3F)c3ccccc3N(C)C2=O)c1` (stereo not given), the melting point is 271 to 273 °C.

For the compound `O=c1[nH]cc(-c2cnccn2)cc1Br`, the melting point is above 250 °C.

As for `CCCCCCCCCCCCCCCCOCC(CO)CF` (stereo not given), the melting point came to 34 °C.

Turning to `COc1cc(OC)nc(Sc2c(NC(=O)C(F)(F)F)nc(C)n2C)n1`, the melting point lay within 160 to 162 °C.

Regarding `CCOC(=O)c1cc(Cl)c2[nH]ncc2n1`, the melting point is 276 to 279 °C.

`O=C(Nc1cccc2ccccc12)OCCCC(=O)c1ccccc1` displayed a melting point of 95 to 97 °C.

The compound `Cc1cccc(N2CCN(C(=O)OC(C)(C)C)CC2)c1[N+](=O)[O-]` gave a melting point of 101 to 102 °C.

As to `Cc1cccc(NC(=O)NC2N=C(N3CCCCCC3)c3ccccc3N(C)C2=O)c1` (single isomer, unassigned; (+)), the melting point was in the range of 172 to 175 °C.

For the compound `CC(O)c1ccc2occ(C#N)c(=O)c2c1` (stereo not given), the melting point lay in the range of 147 to 148 °C.

In turn, `COC(=O)CCC(=O)c1ccc(O)c(Cl)c1` displayed a melting point of 85 to 89 °C.

With `CC[C@H](C)C(=O)c1ccc(-c2ccc(OC)cc2)cc1`, the melting point lay within 119 to 120 °C.

The compound `CCN(C/C=C/C#CC(C)(C)C)Cc1cccc(N2C(=O)c3ccccc3C2=O)c1` registered a melting point of 65 to 66 °C.

In turn, `Oc1ccc(CNC2=NCCc3ccccc32)cc1` came in with a melting point of 177 to 179 °C.

`CNc1nc(C)c(-c2ccncc2)s1` showed a melting point of 155 to 156 °C.

The compound `COc1cc(N)c([N+](=O)[O-])c(OC(F)F)c1OC` displayed a melting point of 141 to 142 °C.

As to `N#Cc1cccc2c1CCc1ccsc1-2`, the melting point fell in the range of 74.5 to 75 °C.

With `CN(C)C(=O)c1cc2n(c1)CCc1ccccc1C2=O`, the melting point lay within 148 to 150 °C.

In turn, `CC(C)Nc1ncnc2sc([N+](=O)[O-])cc12` had a melting point of 200 °C.

In turn, `N#Cc1ccc(NC(=O)C(=O)N2CCC(Cc3ccccc3)CC2)cc1` came in with a melting point of 109 to 112 °C.

Compound `O=c1c2c(O)c(O)ccc2c2cc(O)c(O)cc2n1Cc1ccc([N+](=O)[O-])cc1` showed a melting point of 258 to 263 °C.

`CC(C)(C)OC(=O)NCC12CCC1CN(Cc1ccccc1)C2` (stereo not given): the melting point lay within 78 to 79 °C.

`CCCCCc1c(C(C)O)nc(C(C)C)c(CO)c1-c1ccc(F)cc1` (stereo not given) gave a melting point of 125 to 127 °C.

Compound `O=C(O)C(Cc1ccccc1)Oc1ccc(-c2ccc(-c3c(Cc4ccccc4)oc4ccccc34)cc2)cc1Br` (stereo not given) yielded a melting point of 80 to 82 °C.

`O=Cc1ccc2c(=O)c3ccccc3ccc2c1` registered a melting point of 149 to 152 °C.

In turn, `COC12CC(C)(C)C(O1)C(OC(=O)c1ccc(N)cc1)C=C2C` (stereo not given) displayed a melting point of 118 to 119 °C.

Compound `c1cc2c3c(cccc3c1)C(NCCCCn1ccnc1)=N2` returned a melting point of 225 to 230 °C.

`COC(=O)c1cccc(Cn2ccn(C3CCc4ccccc4C3)c2=S)c1` (stereo not given) showed a melting point of 130 to 132 °C.

`CCCCCC(=O)CCC1C(=O)NC(=O)N1CCCCCCC(=O)O` (stereo not given) yielded a melting point of 84.5 to 86 °C.

In the case of `O=C(C=Cc1cccnc1)NCCCCC1CCN(C(Br)(c2ccccc2)C2CCCCC2)CC1` (stereo not given), the melting point lay in the range of 143 to 145 °C.

`COc1cc2cc(Cl)nc(N3CCN(C(=O)Nc4ccc([N+](=O)[O-])cc4)CC3)c2cc1OC` displayed a melting point of 227 to 228 °C.

Take `Nc1ncc(CCC2CCCCC2)s1`: the melting point is 98 to 99 °C.

Consider `O=C1C(=CO)CC[C@H]2C(=O)C(=CO)CC[C@H]12`, for which the melting point is 155 to 157 °C.

Take `N#Cc1cncc(-c2ccc(OCc3ccccc3)cc2)c1Nc1ccc2[nH]ccc2c1`: the melting point lay within 163 to 165 °C.

Regarding `CCc1noc(C)c1-c1[nH]c2ccccc2c1CC(=O)O`, the melting point was in the range of 194 to 197 °C.

In the case of `CCC1C(=O)N2C(C(=O)OCc3ccc([N+](=O)[O-])cc3)=C(CCNC(C)=O)CC12` (stereo not given), the melting point lay in the range of 174 to 176 °C.

Take `CCOC(=O)c1cc2oc3c(n2n1)CCCC3`: the melting point lay within 55 to 57 °C.

For `CC1(CCN)OCCc2c1[nH]c1ccccc21` (stereo not given), the melting point lay in the range of 80 to 84 °C.

The compound `CN(C)CCCc1ccc2c(c1)CCCN2C(=O)c1ccc(-c2ccccc2)cc1` had a melting point of 100 to 101 °C.

As for `NS(=O)(=O)c1cccc(-c2cccc(-c3nc(-c4ccc(Cl)s4)cc(C(F)(F)F)n3)c2)c1`, the melting point is 226 °C.

In turn, `CC1(C)CCc2c(N3CCOCC3)nc3sc4c(NCc5cccc6ccccc56)ncnc4c3c2C1` yielded a melting point of 266 to 267 °C.

`O=C(NC1=NN(c2ccc(Cl)cc2)C(c2ccccc2)C1)C(F)(F)F` (stereo not given) registered a melting point of 176 to 178 °C.

In turn, `O=C(O)CCCCCOc1ccc(C2OC3C(CO)OC(n4cnc5c(Cl)ncnc54)C3O2)cc1` (stereo not given) yielded a melting point of 127 to 129 °C.

Compound `CC(=O)NC1([N+](=O)[O-])C=C(C)C=CN1` (stereo not given) had a melting point of 146 to 149 °C.

For `CS(=O)(=O)c1ccc(-c2nc(C(F)(F)F)[nH]c2-c2ccc3ccccc3c2)cc1`, the melting point was in the range of 228 to 230 °C.

`CN1C(=S)N(C)C2(c3ccccc3)CCCN12` (stereo not given): the melting point fell in the range of 83 to 85 °C.

Consider `O=C1NCC(Cc2ccccc2)O1` (stereo not given), for which the melting point lay within 104 to 105 °C.

`C1=C(c2c[nH]c3ccccc23)CCN(CC2COc3ccc4nocc4c3O2)C1` (stereo not given) yielded a melting point of 110 °C.

Compound `Cn1cc([N+](=O)[O-])nc1C(=O)Cl` showed a melting point of 126 to 128 °C.
